Laboratory results as given in PubChem BioAssay AID1996.
≈ marks a conversion by molar mass, not a printed value.

Settings: buffer; pH 7.4; 200.0 µM

First: CC(C)N1CC(C(=O)Nc2ccc(Cl)c([N+](=O)[O-])c2)CC1=O (stereo unspecified)
Second: Cc1cc(C(=O)Nc2ccc3c(c2)CCC3)ccc1[N+](=O)[O-]
The solubility kinetic of the first is higher: 45.4 µg/mL (≈ 139 µM) for the first, less than 0.3 µg/mL for the second.

Compared with `CN1C(=O)N(C)c2ccc(Br)c3cccc1c23`, `CC(c1ccccc1)n1c(Br)nc2c1c(=O)[nH]c(=O)n2C` (stereo unspecified) is higher in solubility kinetic: less than 0.3 µg/mL for the first, 11.2 µg/mL (≈ 32.1 µM) for the second.

Going from `C=CCOc1ccccc1CN1CCCCCC1` to `Cc1ccc(NC(=O)NCCN2CCCCC2)cc1Cl`, the solubility kinetic rises from 28.7 µg/mL (≈ 117 µM) to greater than 44.4 µg/mL.

Going from `CCc1nccn1S(=O)(=O)c1cc(OC)ccc1OC` to `CCCc1c(C)nc(N2CCN(c3cccc(OC)c3)CC2)[nH]c1=O`, the solubility kinetic falls from 32.9 µg/mL (≈ 111 µM) to 4 µg/mL (≈ 11.7 µM) (8.2-fold).

First: CCNc1c(NCC)c(=O)c1=O
Second: CCCNc1nc2c(c(=O)[nH]c(=O)n2C)n1CCOc1ccccc1
The solubility kinetic of the first is 5.8-fold higher: 23.2 µg/mL (≈ 138 µM) for the first, 4 µg/mL (≈ 11.6 µM) for the second.

Compared with `CC(C)CCSc1cc(NCCO)c([N+](=O)[O-])c2nonc12`, `COc1cc(SC)ccc1C(=O)OCC(=O)NCC(C)C` is higher in solubility kinetic: 10 µg/mL (≈ 30.6 µM) for the first, greater than 46.7 µg/mL for the second.

Going from `CC(=O)Nc1ccc(C(=O)NCC2CCCCC2)cc1` to `O=C(COC(=O)c1ccc(O)cc1)NCCC1=CCCCC1`, the solubility kinetic rises from 36.4 µg/mL (≈ 133 µM) to greater than 45.5 µg/mL.

`Cc1ccc([N+](=O)[O-])c(NC(=O)COC(=O)C2CC3CCCC(C2)C3=O)c1C` (stereo unspecified) and `O=C(COC(=O)C1C2CC3OC(=O)C1C3C2)Nc1ccc(F)cc1` (stereo unspecified) cannot be ordered by solubility kinetic: greater than 58.3 µg/mL for the first, greater than 50 µg/mL for the second.

`CC1CN(C(=O)/C=C/c2ccc(SC(F)F)cc2)CC(C)O1` (stereo unspecified) and `CC1CC(C)CN(CC(=O)c2c[nH]c3ccccc23)C1` (stereo unspecified) are within 1.5-fold of each other in solubility kinetic: 36.3 µg/mL (≈ 111 µM) for the first, 37.8 µg/mL (≈ 140 µM) for the second.

Compared with `Cn1c2ccccc2c2ncn(Cc3ccc(F)cc3)c(=O)c21`, `O=C(COc1ccccc1)N1CCN=C1SCc1ccc(F)cc1` is higher in solubility kinetic: less than 0.2 µg/mL for the first, 6.4 µg/mL (≈ 18.6 µM) for the second.

`Cc1ccc(-c2ccc(CO)o2)cc1N` and `Cc1ccc(C)c(NS(=O)(=O)c2csc(C(N)=O)c2)c1` cannot be ordered by solubility kinetic: greater than 30.5 µg/mL for the first, 36.3 µg/mL (≈ 117 µM) for the second.

Compared with `COc1ccccc1OC(C)C(=O)N1CCc2ccccc21` (stereo unspecified), `CCc1ccccc1NC(=O)N1CCCc2ccccc21` is 6.9-fold higher in solubility kinetic: 3.3 µg/mL (≈ 11.1 µM) for the first, 22.8 µg/mL (≈ 81.3 µM) for the second.

Going from `O=C1CNC(=O)/C(=C\c2ccc(F)cc2)N1` to `O=C(O)/C=C/c1ccc(S(=O)(=O)Nc2cccnc2)cc1`, the solubility kinetic rises from 5 µg/mL (≈ 22.7 µM) to greater than 45.6 µg/mL.

First: Cc1ccc(CN(C)C(=O)c2c(C)nn(-c3ccccc3)c2C)cc1
Second: CCC(=O)c1cn(CC(=O)Nc2ccc(C)cc2)c2ccccc12
The solubility kinetic of the first is higher: greater than 50 µg/mL for the first, less than 0.3 µg/mL for the second.

Compared with `O=C(/C=C/c1cccc(Cl)c1)NCc1ccccc1`, `O=C(NCc1ccccc1)c1cc[n+](Cc2ccccc2)cc1.[Cl-]` is 15-fold higher in solubility kinetic: 3.4 µg/mL (≈ 12.5 µM) for the first, 49.7 µg/mL for the second.

Going from `O=C(Nc1ccccc1)Nc1ccccc1C(=O)NCCCN1CCOCC1` to `O=C(N/C(=C\c1ccccc1)C(=O)N1CCOCC1)c1ccco1`, the solubility kinetic rises from 46.3 µg/mL (≈ 121 µM) to greater than 49 µg/mL.

Compared with `O=[N+]([O-])c1cnc2ccccn12`, `O=C1C2C3C=CC(CC3)C2C(=O)N1c1ccccc1[N+](=O)[O-]` (stereo unspecified) is 1.5-fold lower in solubility kinetic: 22.1 µg/mL (≈ 135 µM) for the first, 14.5 µg/mL (≈ 48.6 µM) for the second.

First: O=C(CSc1nnc(Nc2ccccc2F)s1)NC1CCS(=O)(=O)C1 (stereo unspecified)
Second: O=C(NC1CCCC1)c1cc(=O)[nH]c2ccccc12
The solubility kinetic of the first is higher: greater than 60.4 µg/mL for the first, 33.6 µg/mL (≈ 131 µM) for the second.

`Cc1cccc(N2CC(C(=O)Nc3ccccc3N3CCOCC3)CC2=O)c1C` (stereo unspecified) and `O=C(c1ccc(N2C(=O)c3ccccc3C2=O)cc1)N1CCCCC1` cannot be ordered by solubility kinetic: greater than 59 µg/mL for the first, greater than 50.2 µg/mL for the second.

Going from `Cl.Clc1ccc(CNCC2CCCO2)c(Cl)c1` (stereo unspecified) to `Fc1cccc(Cl)c1CNc1ccc(N2CCCC2)cc1`, the solubility kinetic falls from 37 µg/mL to 0.7 µg/mL (≈ 2.3 µM) (53-fold).

Going from `CCOC(=O)C1C(CC)NC(=S)NC1(C)O` (stereo unspecified) to `CCOC(=O)C1CCCN(S(=O)(=O)c2c(C)noc2C)C1` (stereo unspecified), the solubility kinetic rises from 35 µg/mL (≈ 142 µM) to greater than 47.5 µg/mL.

`O=C(c1ccc([N+](=O)[O-])cc1)N1CCCC1` and `COc1cccc(C(=S)N2CCCC2)c1OC` cannot be ordered by solubility kinetic: greater than 33 µg/mL for the first, 35.3 µg/mL (≈ 140 µM) for the second.

Going from `CC(=O)N1CCN(c2cc(N3CCCC3)c(F)cc2[N+](=O)[O-])CC1` to `COc1ccccc1N1CCN(c2ccc(S(=O)(=O)N3CCN(C)CC3)cn2)CC1`, the solubility kinetic falls from greater than 50.5 µg/mL to 26.9 µg/mL (≈ 62.3 µM).

First: O=C(Nc1ccc(Br)cn1)c1ccc(Cl)s1
Second: O=C(Nc1ccccc1Cl)c1ccc(-c2ccccn2)s1
The solubility kinetic of the first is 1.7-fold higher: 1.4 µg/mL (≈ 4.41 µM) for the first, 0.8 µg/mL (≈ 2.54 µM) for the second.

First: CCc1ccccc1NC(=S)N(CCN(C)C)C(C)c1cccnc1 (stereo unspecified)
Second: CC(NC(=O)COC(=O)c1ccc2ccccc2n1)c1ccccc1 (stereo unspecified)
The solubility kinetic of the first is 9.6-fold higher: 50.9 µg/mL (≈ 143 µM) for the first, 5.3 µg/mL (≈ 15.9 µM) for the second.

Going from `C=CCn1c(O)c(C(CC)=Nc2ccc3c(c2)CCC3)c(=O)[nH]c1=O` to `O=C(OCc1cccc(F)c1)c1ccc2c(=O)n3c(nc2c1)CCC3`, the solubility kinetic rises from 1.4 µg/mL (≈ 4.12 µM) to 18.5 µg/mL (≈ 54.7 µM) (13-fold).

Going from `Cc1ccccc1/C=C/c1cc[n+](C)cc1.[I-]` to `CSc1ccccc1NC(=O)COC(=O)/C=C/c1ccco1`, the solubility kinetic falls from greater than 50.6 µg/mL to 16.9 µg/mL (≈ 53.3 µM).

First: COc1ccc(NC(=O)CN(C)C(=O)C2(c3ccccc3)CCCC2)cc1
Second: CS(=O)(=O)Nc1ccc(C(=O)Nc2ccccc2-c2ccccc2)cc1
The solubility kinetic of the first is higher: greater than 55 µg/mL for the first, 42.4 µg/mL (≈ 116 µM) for the second.

`CC1CCN(C(=O)CSCC(=O)O)CC1` and `CCCOc1cccc(C(=O)NCCNC(=O)c2cnccn2)c1` cannot be ordered by solubility kinetic: greater than 34.7 µg/mL for the first, 48 µg/mL (≈ 146 µM) for the second.

Going from `CCOc1ccc(C(=O)Nc2cccc3ncccc23)cc1Cl` to `C=CCNC(=S)NNC(=O)c1ccncc1`, the solubility kinetic rises from 1.1 µg/mL (≈ 3.37 µM) to greater than 35.4 µg/mL.

In the case of `Cn1cccc1C1C(C#N)=C(N)OC2=C1C(=O)CC(C)(C)C2` (stereo unspecified), the solubility kinetic is reported as 43.2 µg/mL (≈ 145 µM).
